This is an account of results in US10322187B2, “Reduced toxicity molecular conjugates of anti-fungal agents” (Lehigh University, priority 2015, dated 2019).

≈ marks a conversion by molar mass, not a printed value. Like-named read-outs stand apart in the source and are kept apart here.

Common to all, as to assay: Antifungal activities, MIC/MFC
Holding throughout (format): cell-based

The subject of one assay is C. glabrata. The settings on record: Table 2, 2nd value in brackets, C. glabrata, read-out: minimum inhibitory concentration (MIC). The method, then: (§1) A similar sequence of reactions was carried out using lysine dicholamide in place of cholic acid afforded VJ-1147 of Table 2. To assess the antifungal properties of the diwalled VJ-1138 (Table 2) and 2a of Table 3, their in vitro activities were examined against four clinically relevant microbes, i.e., C. albicans, C. glabrata, C. neoformans, and C. gatti (Table 4).
(§2) Minimum inhibitory concentrations (MIC) and minimum fungicidal concentrations (MFC) are the lowest concentrations that are required for completely inhibiting growth, and killing at least 99% of the fungi, respectively.
(§3) The above molecules were tested for antifungal activity. Minimum inhibitory concentrations (MIC) and minimum fungicidal concentrations (MFC) are the lowest concentrations that are required for completely inhibiting growth, and killing at least 99% of the fungi, respectively. As is apparent from Table 4 below, there is a general trend; i.e., increased antifungal activity is observed as the length of the hydrocarbon chain that separates the facial amphiphile from the Amphotericin B moiety is decreased.

A further assay relates to C. neoformans. The settings on record: Table 2, 3rd value in brackets, C. neoformans, read-out: minimum inhibitory concentration (MIC). The method, then: as §1, §2, §3
The test system of another assay is C. albicans. The following applies: Table 2, 1st value in brackets, C. albicans, read-out: minimum inhibitory concentration (MIC). The method, then:
as §1, §2, §3

The subject of another assay is C. gatti. The settings on record: Table 2, 4th value in brackets, C. gatti; read-out: minimum inhibitory concentration (MIC). The protocol:
as §1, §2, §3

Turning to `CC1OC(O[C@H]2/C=C/C=C/C=C/C=C/C=C/C=C/C=C/[C@H](C)[C@@H](O)[C@@H](C)[C@H](C)OC(=O)C[C@H](O)C[C@H](O)CC[C@@H](O)[C@H](O)C[C@H](O)C[C@]3(O)C[C@H](O)[C@@H](C(=O)NCCCCNC(=O)C(CCCCNC(=O)CC[C@@H](C)C4CCC5C6C(O)CC7CC(OC(=O)NCCCCN)CCC7(C)C6CC(O)C54C)NC(=O)CC[C@@H](C)C4CCC5C6C(O)CC7CC(OC(=O)NCCCCN)CCC7(C)C6CC(O)C54C)[C@H](C2)O3)C(O)C(N)C1O` (stereo partly drawn) [YM-18], the MIC is 16 µM (≈ 34.1 µg/mL) in the assay on C. glabrata, 2 µM (≈ 4.26 µg/mL) in the assay with C. neoformans, 2 µM (≈ 4.26 µg/mL) in the assay on C. albicans and 2 µM (≈ 4.26 µg/mL) in the assay with C. gatti.
For the molecule `CC1OC(O[C@H]2/C=C/C=C/C=C/C=C/C=C/C=C/C=C/[C@H](C)[C@@H](O)[C@@H](C)[C@H](C)OC(=O)C[C@H](O)C[C@H](O)CC[C@@H](O)[C@H](O)C[C@H](O)C[C@]3(O)C[C@H](O)[C@@H](C(=O)NCCCCNC(=O)C(CCCCNC(=O)CC[C@@H](C)C4CCC5C6C(O)CC7CC(OC(=O)NCC(O)C(O)C(O)C(O)CO)CCC7(C)C6CC(O)C54C)NC(=O)CC[C@@H](C)C4CCC5C6C(O)CC7CC(OC(=O)NCC(O)C(O)C(O)C(O)CO)CCC7(C)C6CC(O)C54C)[C@H](C2)O3)C(O)C(N)C1O` (stereo partly drawn) [YM-13], the MIC was determined as 8 µM (≈ 18.5 µg/mL) in the assay with C. glabrata, 2 µM (≈ 4.64 µg/mL) in the assay with C. neoformans, 8 µM (≈ 18.5 µg/mL) in the assay with C. albicans and 4 µM (≈ 9.27 µg/mL) in the assay with C. gatti.
In the case of `CC1OC(O[C@H]2/C=C/C=C/C=C/C=C/C=C/C=C/C=C/[C@H](C)[C@@H](O)[C@@H](C)[C@H](C)OC(=O)C[C@H](O)C[C@H](O)CC[C@@H](O)[C@H](O)C[C@H](O)C[C@]3(O)C[C@H](O)[C@@H](C(=O)NCCCCNC(=O)C(CCCCNC(=O)CC[C@@H](C)C4CCC5C6C(O)CC7CC(O)CCC7(C)C6CC(O)C54C)NC(=O)CC[C@@H](C)C4CCC5C6C(O)CC7CC(O)CCC7(C)C6CC(O)C54C)[C@H](C2)O3)C(O)C(N)C1O` (stereo partly drawn) [YM-15], the MIC in the assay with C. glabrata (Nakaseomyces glabratus) is > 16 µM; in the assay on C. neoformans (Cryptococcus neoformans) it was > 16 µM; in the assay with C. albicans (Candida albicans), > 16 µM; with C. gatti, 4 µM (≈ 7.61 µg/mL).
On to `CC1OC(O[C@H]2/C=C/C=C/C=C/C=C/C=C/C=C/C=C/[C@H](C)[C@@H](O)[C@@H](C)[C@H](C)OC(=O)C[C@H](O)C[C@H](O)CC[C@@H](O)[C@H](O)C[C@H](O)C[C@]3(O)C[C@H](O)[C@@H](C(=O)NCCCCNC(=O)C(CCCCNC(=O)CC[C@@H](C)C4CCC5C6C(O)CC7CC(OC(=O)NCCN(C)C)CCC7(C)C6CC(O)C54C)NC(=O)CC[C@@H](C)C4CCC5C6C(O)CC7CC(OC(=O)NCCN(C)C)CCC7(C)C6CC(O)C54C)[C@H](C2)O3)C(O)C(N)C1O` (stereo partly drawn) [YM-19], for which the MIC in the assay on C. glabrata turned out to be 32 µM (≈ 68.2 µg/mL); with C. neoformans, 2 µM (≈ 4.26 µg/mL); in the assay on C. albicans, 4 µM (≈ 8.53 µg/mL); in the assay with C. gatti, 2 µM (≈ 4.26 µg/mL).
Take `CC1OC(O[C@H]2/C=C/C=C/C=C/C=C/C=C/C=C/C=C/[C@H](C)[C@@H](O)[C@@H](C)[C@H](C)OC(=O)C[C@H](O)C[C@H](O)CC[C@@H](O)[C@H](O)C[C@H](O)C[C@]3(O)C[C@H](O)[C@@H](C(=O)NCCCCCCCC(=O)N(CCCCNC(=O)CC[C@@H](C)C4CCC5C6C(OC(=O)NCCCCN)CC7CC(OC(=O)NCCCCN)CCC7(C)C6CC(OC(=O)NCCCCN)C54C)CCCNC(=O)CC[C@@H](C)C4CCC5C6C(OC(=O)NCCCCN)CC7CC(OC(=O)NCCCCN)CCC7(C)C6CC(OC(=O)NCCCCN)C54C)[C@H](C2)O3)C(O)C(N)C1O` (stereo partly drawn) [VJ-1147]: the MIC with C. glabrata was 16 µM (≈ 42.5 µg/mL); in the assay on C. neoformans, 8 µM (≈ 21.3 µg/mL); in the assay with C. albicans, 8 µM (≈ 21.3 µg/mL); in the assay on C. gatti it was 8 µM (≈ 21.3 µg/mL).
In the case of `CC1OC(O[C@H]2/C=C/C=C/C=C/C=C/C=C/C=C/C=C/[C@H](C)[C@@H](O)[C@@H](C)[C@H](C)OC(=O)C[C@H](O)C[C@H](O)CC[C@@H](O)[C@H](O)C[C@H](O)C[C@]3(O)C[C@H](O)[C@@H](C(=O)NCCOCCOCCC(=O)N(CCCCNC(=O)CC[C@@H](C)C4CCC5C6C(O)CC7CC(O)CCC7(C)C6CC(O)C54C)CCCNC(=O)CC[C@@H](C)C4CCC5C6C(O)CC7CC(O)CCC7(C)C6CC(O)C54C)[C@H](C2)O3)C(O)C(N)C1O` (stereo partly drawn) [YM-42], the MIC in the assay on C. glabrata (Nakaseomyces glabratus), with C. neoformans (Cryptococcus neoformans), with C. albicans (Candida albicans) and in the assay with C. gatti was > 16 µM in each case.
